According to PMC3437627 (Bioorganic & medicinal chemistry letters, 2008):

Experiments:
α7* nAChRs [1] = target: T1, α7* nAChRs (Rattus norvegicus, UniProt Q05941); experiment: [3H]methyllycaconitine; assay type: binding; details: 100 nM
α4β2* nAChRs = α4β2* nAChRs (Rattus norvegicus, UniProt P09483+P12390); details: rat brain membranes; cited from earlier work
α7* nAChRs [2] = target: T1, α7* nAChRs; details: rat brain membranes; cited from earlier work
[3] = tested on: nicotine self-administration; details: rats; cited from earlier work
[4] = in vivo; cited from earlier work

T1 sequence (Q05941 23-502): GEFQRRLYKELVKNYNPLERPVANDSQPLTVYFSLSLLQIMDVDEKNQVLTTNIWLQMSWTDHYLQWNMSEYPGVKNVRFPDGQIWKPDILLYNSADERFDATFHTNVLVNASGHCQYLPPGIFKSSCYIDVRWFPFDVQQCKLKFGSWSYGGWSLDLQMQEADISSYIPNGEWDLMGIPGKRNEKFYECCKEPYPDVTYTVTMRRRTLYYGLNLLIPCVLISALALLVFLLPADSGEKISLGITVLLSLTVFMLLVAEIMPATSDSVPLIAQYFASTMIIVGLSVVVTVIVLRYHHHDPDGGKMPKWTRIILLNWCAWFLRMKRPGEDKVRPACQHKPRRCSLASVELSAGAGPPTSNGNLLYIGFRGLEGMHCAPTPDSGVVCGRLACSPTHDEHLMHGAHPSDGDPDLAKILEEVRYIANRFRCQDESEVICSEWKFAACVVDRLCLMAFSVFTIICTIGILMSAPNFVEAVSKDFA
Sequence of α4β2* nAChRs (P09483 31-630): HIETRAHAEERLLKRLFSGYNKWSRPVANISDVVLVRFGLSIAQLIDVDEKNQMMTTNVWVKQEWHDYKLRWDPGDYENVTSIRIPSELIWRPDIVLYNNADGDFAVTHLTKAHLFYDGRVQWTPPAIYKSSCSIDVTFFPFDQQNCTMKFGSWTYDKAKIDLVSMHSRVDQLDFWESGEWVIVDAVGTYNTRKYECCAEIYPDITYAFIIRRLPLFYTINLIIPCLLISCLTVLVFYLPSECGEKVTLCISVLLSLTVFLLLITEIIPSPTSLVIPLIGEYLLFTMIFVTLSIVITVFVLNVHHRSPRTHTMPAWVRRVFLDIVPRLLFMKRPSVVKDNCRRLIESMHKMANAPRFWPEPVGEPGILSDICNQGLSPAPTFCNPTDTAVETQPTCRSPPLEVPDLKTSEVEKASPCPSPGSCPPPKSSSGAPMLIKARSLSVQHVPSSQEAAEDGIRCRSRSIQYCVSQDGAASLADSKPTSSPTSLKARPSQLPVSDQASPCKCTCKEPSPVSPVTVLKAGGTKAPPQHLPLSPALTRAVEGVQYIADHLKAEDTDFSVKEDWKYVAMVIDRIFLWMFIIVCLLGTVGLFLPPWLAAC
Sequence of α4β2* nAChRs (P12390 25-500): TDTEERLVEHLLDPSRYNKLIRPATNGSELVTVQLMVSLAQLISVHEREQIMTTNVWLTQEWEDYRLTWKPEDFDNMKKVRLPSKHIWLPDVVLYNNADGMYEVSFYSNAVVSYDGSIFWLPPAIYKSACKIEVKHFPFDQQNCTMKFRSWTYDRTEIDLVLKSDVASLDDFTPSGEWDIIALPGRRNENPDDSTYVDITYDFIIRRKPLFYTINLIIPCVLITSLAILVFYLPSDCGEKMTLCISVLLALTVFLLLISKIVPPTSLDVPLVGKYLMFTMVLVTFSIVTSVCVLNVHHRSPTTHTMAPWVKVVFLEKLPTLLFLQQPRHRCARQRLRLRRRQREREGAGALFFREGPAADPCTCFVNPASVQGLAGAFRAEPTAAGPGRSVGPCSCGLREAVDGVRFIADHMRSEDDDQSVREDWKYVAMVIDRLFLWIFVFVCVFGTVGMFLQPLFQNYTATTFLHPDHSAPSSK

Structure (SMILES): C(#Cc1cc(C#CCCC[n+]2cccc(-c3ccccc3)c2)c(C#CCCC[n+]2cccc(-c3ccccc3)c2)cc1C#CCCC[n+]1cccc(-c2ccccc2)c1)CCC[n+]1cccc(-c2ccccc2)c1.[Br-].[Br-].[Br-].[Br-] [Compound 8i]
- inhibition in the MLA assay (α7* nAChRs [1]): significant inhibition

Structure (SMILES): Cc1ccc[n+](CCCCCCCCCCCC[n+]2cccc(C)c2)c1.[Br-].[Br-] [Compound 2, N,N’-dodecane-1,12-diyl-bis-3-picolinium dibromide]
- affinity for α4β2* nAChR binding site (α4β2* nAChRs): no affinity
- affinity for α7* nAChR binding site (α7* nAChRs [2]): no affinity
- effect on nicotine self-administration [3]: decrease nicotine self-administration
- brain bioavailability [4]: brain bio-available

Structure (SMILES): C(#Cc1cc(C#CCCC[n+]2cccc(Cc3ccccc3)c2)c(C#CCCC[n+]2cccc(Cc3ccccc3)c2)cc1C#CCCC[n+]1cccc(Cc2ccccc2)c1)CCC[n+]1cccc(Cc2ccccc2)c1.[Br-].[Br-].[Br-].[Br-] [Compound 8f]
- inhibition in the MLA assay (α7* nAChRs [1]): significant inhibition
